From patent US7022716B2, “Cyclic amine phenyl beta-3 adrenergic receptor agonists” (Wyeth, priority 2000, dated 2006) come the findings set out here.

This test concerns the target T1, human β3 adrenergic receptor (Homo sapiens, UniProt P13945).
T1 construct: Full length β3 AR clones (402 amino acids) containing the last 6 amino acids of hβ3-AR are prepared; expressed in transfected cells; host or cells: CHO (Chinese hamster ovary) cells
As to the kind of experiment: cAMP (SPA) response in CHO cells transfected with human β3 adrenergic receptor. Format: cell-based. The arrangement: key: fraction of maximal isoproterenol (10^-5 M) response. The conditions noted are these: maximal response relative to maximal response of isoproterenol at 10^-5 M. The essentials: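 Reactions were stopped with 0.2N HCl and neutralised, and cAMP was measured by SPA. Activity is expressed as percent of the maximal 10^−5 M isoproterenol response.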

T1 sequence (P13945 whole entry): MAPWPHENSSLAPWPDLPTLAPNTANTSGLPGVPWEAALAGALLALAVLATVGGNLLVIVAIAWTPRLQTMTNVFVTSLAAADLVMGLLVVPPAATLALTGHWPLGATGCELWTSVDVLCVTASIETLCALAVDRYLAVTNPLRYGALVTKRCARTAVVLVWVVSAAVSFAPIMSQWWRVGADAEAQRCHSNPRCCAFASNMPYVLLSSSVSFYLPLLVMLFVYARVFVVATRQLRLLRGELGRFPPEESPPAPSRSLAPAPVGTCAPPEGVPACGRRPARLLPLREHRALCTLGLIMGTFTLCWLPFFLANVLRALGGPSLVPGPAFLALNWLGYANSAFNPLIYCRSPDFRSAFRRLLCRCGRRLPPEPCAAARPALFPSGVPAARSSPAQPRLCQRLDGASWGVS

As for `O=[N+]([O-])c1ccc(Oc2c(Cl)cc(S(=O)(=O)Nc3ccc(N4CCC(NC[C@H](O)COc5ccccc5)CC4)cc3)cc2Cl)c(Cl)c1` [Example 353, 3,5-Dichloro-4-(2-chloro-4-nitrophenoxy)-N-[4-(4-{[(2S)-2-hydroxy-3-phenoxypropyl]amino}-1-piperidinyl)phenyl]benzenesulfonamide], the “IA(β3)” value was determined as 0.97.

Turning to `O=C1NC(=S)SC1=Cc1ccc(N2CCC(NC[C@H](O)COc3ccc(O)cc3)CC2)cc1` [Example 82, 5-(4-{4-[(2S)-2-Hydroxy-3-(4-hydroxy)-propylamino]-piperidin-1-yl}-benzylidene)-2-thioxo-thiazolidin-4-one], the “IA(β3)” value stood at 1.07. Under `CCCCN(c1ccc(N2CCC(NC[C@H](O)c3ccc(O)c(NS(C)(=O)=O)c3)CC2)cc1)S(=O)(=O)CC(=O)OCc1ccccc1` [Example 324, Benzyl[(butyl-4-{4-[((2R)-2-hydroxy-2-{4-hydroxy-3-[(methylsulfonyl)amino]phenyl}-ethyl)amino]-1-piperidinyl)anilino)sulfonyl}acetate] stands 0.9; under `O=c1[nH]c2cccc(OC[C@@H](O)CNC3CCN(c4ccc(NS(=O)(=O)c5cc(Cl)c(Oc6ccc([N+](=O)[O-])cc6Cl)c(Cl)c5)cc4)CC3)c2[nH]1` [Example 352, 3,5-Dichloro-4-(2-chloro-4-nitrophenoxy)-N-{4-[4-({(2S)-2-hydroxy-3-[(2-oxo-2,3-dihydro-1H-benzimidazol-4-yl)oxy]propyl}amino)-1-piperidinyl]phenyl}-benzenesulfonamide], 1.02; under `COc1ccc(S(=O)(=O)Nc2ccc(N3CCC(NC[C@H](O)c4cccc(Cl)c4)CC3)cc2)cc1` [Example 260, N-[4-(4-{[(2R)-2-(3-Chlorophenyl)-2-hydroxyethyl]amino}-1-piperidinyl)phenyl]-4-methoxybenzenesulfonamide], 0.63. To `CCCCCCNC(=O)Nc1ccc(S(=O)(=O)Nc2ccc(N3CCC(NC[C@H](O)COc4cccc5[nH]c(=O)[nH]c45)CC3)cc2)cc1` [Example 275, 4-{[(Hexylamino)carbonyl]amino}-N-{4-[4-({(2S)-2-hydroxy-3-[(2-oxo-2,3-dihydro-1H-benzimidazol-4-yl)oxy]propyl}amino)-1-piperidinyl]phenyl}benzenesulfonamide] belongs 0.73; to `COC(=O)COc1ccc(S(=O)(=O)Nc2ccc(N3CCC(NC[C@H](O)c4ccc(Cl)c(NS(C)(=O)=O)c4)CC3)cc2)cc1` [Example 319, Methyl{4-[(4-{4-[((2R)-2-{4-chloro-3-[(methylsulfonyl)amino]phenyl}-2-hydroxyethyl)amino]-1-piperidinyl}anilino)sulfonyl]phenoxy}acetate], 0.79. Turning to `O=c1[nH]c2cccc(OC[C@@H](O)CNC3CCN(c4ccc(NS(=O)(=O)c5ccc(Oc6ncc(C(F)(F)F)cc6Cl)cc5)cc4)CC3)c2[nH]1` [Example 350, 4-{[3-Chloro-5-(trifluoromethyl)-2-pyridinyl]oxy}-N-{4-[4-({(2S)-2-hydroxy-3-[(2-oxo-2,3-dihydro-1H-benzimidazol-4-yl)oxy]propyl}amino)-1-piperidinyl]phenyl}-benzenesulfonamide], the “IA(β3)” value is 1.26. To `CCCCS(=O)(=O)Nc1ccc(N2CCC(NC[C@H](O)COc3cccc4[nH]c(=O)[nH]c34)CC2)cc1` [Example 296, N-{4-[4-({(2S)-2-Hydroxy-3-[(2-oxo-2,3-dihydro-1H-benzimidazol-4-yl)oxy]propyl}amino)-1-piperidinyl]phenyl}-1-butanesulfonamide] belongs 0.81. Under `CCCCc1ccc(S(=O)(=O)Nc2ccc(N3CCC(NC[C@H](O)COc4cccc5[nH]c(=O)[nH]c45)CC3)cc2)cc1` [Example 332, 4-Butyl-N-{4-[4-({(2S)-2-hydroxy-3-[(2-oxo-2,3-dihydro-1H-benzimidazol-4-yl)oxy]propyl}amino)-1-piperidinyl]phenyl}benzenesulfonamide.] stands 1.1. Under `CC(=O)Nc1ccc(S(=O)(=O)Nc2ccc(N3CCC(NCC(O)c4ccc(O)c(NS(C)(=O)=O)c4)CC3)cc2)cc1` (stereo not drawn) [Example 270, N-{4-[(4-{4-[(2-Hydroxy-2-{4-hydroxy-3-[(methylsulfonyl)amino]phenyl}ethyl)amino]-1-piperidinyl}anilino)sulfonyl]phenyl}acetamide] stands 1.09; under `CC(=O)Nc1ccc(S(=O)(=O)Nc2ccc(N3CCC(NCC(O)c4cc(C(N)=O)c5[nH]ccc5c4)CC3)cc2)cc1` (stereo not drawn) [Example 273, 5-[2-({1-[4-({[4-(Acetylamino)phenyl]sulfonyl}amino)phenyl]-4-piperidinyl}amino)-1-hydroxyethyl]-1H-indole-7-carboxamide], 1.05. On to `COc1ccc(S(=O)(=O)Nc2ccc(N3CCC(NCC(O)c4ccccc4)CC3)cc2)cc1` (stereo not drawn) [Example 255, N-{4-[4-(2-Hydroxy-2-phenyl-ethylamino)-piperidin-1-yl]-phenyl}-4-methoxy-benzenesulfonamide], for which the “IA(β3)” value is listed as 0.72. Under `COc1ccc(S(=O)(=O)Nc2ccc(N3CCC(NC[C@H](O)COc4ccccc4)CC3)cc2)cc1OC` [Example 360, N-[4-(4-{[(2S)-2-Hydroxy-3-phenoxypropyl]amino}-1-piperidinyl)phenyl]-3,4-dimethoxybenzenesulfonamide] stands 0.54; under `CC(=O)Nc1ccc(S(=O)(=O)Nc2ccc(N3CC(NC[C@H](O)COc4cccc5[nH]c6ccccc6c45)C3)cc2)cc1` [Example 417, N-(4-{[4-(3-{[(2S)-3-(9H-Carbazol-4-yloxy)-2-hydroxypropyl]amino}-1-azetidinyl)anilino]sulfonyl}phenyl)acetamide], 0.71. Take `CCCCCCNC(=O)Nc1ccc(S(=O)(=O)Nc2ccc(N3CCC(NC[C@H](O)COc4cccc5[nH]c6ccccc6c45)CC3)cc2)cc1` [Example 290]: the “IA(β3)” value worked out at 0.72.

In the case of `CCCCS(=O)(=O)Nc1ccc(N2CCC(NCC(O)c3ccc(O)c(NS(C)(=O)=O)c3)CC2)cc1` (stereo not drawn) [Example 295, N-(4-{4-[(2-Hydroxy-2-{4-hydroxy-3-[(methylsulfonyl)amino]phenyl}ethyl)amino]-1-piperidinyl}phenyl)-1-butanesulfonamide], the “IA(β3)” value is 0.87. To `CC(=O)Nc1ccc(S(=O)(=O)Nc2ccc(N3CCC(NC[C@H](O)c4ccc(O)c(O)c4)CC3)cc2)cc1` [Example 263, N-(4-{[4-(4-{[(2R)-2-(3,4-Dihydroxyphenyl)-2-hydroxyethyl]amino}-1-piperidinyl)anilino]sulfonyl}phenyl)acetamide] belongs 0.93; to `O=c1[nH]c2cccc(OC[C@@H](O)CNC3CCN(c4ccc(NS(=O)(=O)c5ccc(-n6nnn(CCCC7CCCC7)c6=O)cc5)cc4)CC3)c2[nH]1` [Example 277], 0.58. Under `O=c1[nH]c2cccc(OC[C@@H](O)CNC3CCN(c4ccc(NS(=O)(=O)c5ccc(-c6ccon6)s5)cc4)CC3)c2[nH]1` [Example 287, N-{4-[4-({(2S)-2-Hydroxy-3-[(2-oxo-2,3-dihydro-1H-benzimidazol-4-yl)oxy]propyl}-amino)-1-piperidinyl]phenyl}-5-(3-isoxazolyl)-2-thiophenesulfonamide] stands 0.92; under `CS(=O)(=O)Nc1cc([C@@H](O)CNC2CCN(c3ccc(NS(=O)(=O)c4ccsc4C(=O)O)cc3)CC2)ccc1O` [Example 321, 3-[(4-{4-[((2R)-2-Hydroxy-2-{4-hydroxy-3-[(methylsulfonyl)amino]phenyl}ethyl)amino]-1-piperidinyl}anilino)sulfonyl]-2-thiophenecarboxylic acid], 1.05. To `CC(=O)Nc1ccc(S(=O)(=O)Nc2ccc(N3CCC(NCC(O)c4cccc(O)c4)CC3)cc2)cc1` (stereo not drawn) [Example 257, N-[4-(4-{4-[2-Hydroxy-2-(3-hydroxy-phenyl)-ethylamino]-piperidin-1-yl}-phenylsulfamoyl)-phenyl]-acetamide] belongs 0.88; to `CCOC(=O)Cc1ccc(S(=O)(=O)Nc2ccc(N3CCC(NC[C@H](O)COc4ccc(O)c(NS(C)(=O)=O)c4)CC3)cc2)cc1` [Example 312, Ethyl{4-[(4-}4-[((2S)-2hydroxy-3-{4-hydroxy-3-[(methylsulfonyl)amino]-phenoxy{propyl)amino]-1-piperidinyl}anilino)sulfonyl]phenyl}acetate], 1.1. With `COc1ccc(S(=O)(=O)Nc2ccc(N3CC(NC[C@H](O)COc4ccc(O)cc4)C3)cc2)cc1OC` [Example 412, N-[4-(3-{[(2S)-2-hydroxy-3-(4-hydroxyphenoxy)propyl]amino}-1-azetidinyl)phenyl]-3,4-dimethoxybenzenesulfonamide], the “IA(β3)” value was determined as 0.56. To `O=C(NCc1ccc(S(=O)(=O)Nc2ccc(N3CCC(NC[C@H](O)COc4cccc5[nH]c(=O)[nH]c45)CC3)cc2)s1)c1ccccc1` [Example 347, N-{[5-({4-[4-({(2S)-2-Hydroxy-3-[(2-oxo-2,3-dihydro-1H-benzimidazol-4-yl)oxy]propyl}amino)-1-piperidinyl]anilino}sulfonyl)-2-thienyl]methyl}benzamide] belongs 0.91; to `CC(=O)Nc1ccc(S(=O)(=O)Nc2ccc(N3CCC(NC[C@H](O)COc4cccc5[nH]c6ccccc6c45)CC3)cc2)cc1` [Example 282, N-(4-{[4-(4-{[(2S)-3-(9H-Carbazol-4-yloxy)-2-hydroxypropyl]amino}-1-piperidinyl)-anilino]sulfonyl}phenyl)acetamide], 0.63; to `O=S(=O)(Nc1ccc(N2CCC(NC[C@H](O)COc3ccccc3)CC2)cc1)c1ccc(Oc2ncc(C(F)(F)F)cc2Cl)cc1` [Example 346, 4-{[3-Chloro-5-(trifluoromethyl)-2-pyridinyl]oxy}-N-[4-(4-{[(2S)-2-hydroxy-3-phenoxypropyl]amino}-1-piperidinyl)phenyl]benzenesulfonamide], 0.76.
